Measured values taken from patent US9394284B2, “Compounds act at multiple prostaglandin receptors giving a general anti-inflammatory response” (Allergan, Inc., priority 2010, dated 2016).

Assays:
Type in all cases: cell-based
[1] = biological target: T1, human prostanoid EP2 receptor (Homo sapiens, UniProt P43116); test: FLIPR Ca2+ signaling antagonist assay, EP2 receptor stable cell line; conditions: HEK-293 EBNA stable cell line; standard agonist PGE2; NA = inactive (no antagonism or Kb 10,000 nM); PAg, Ag not defined
T1 construct: expressed in transfected cells
T1 sequence (P43116 whole entry): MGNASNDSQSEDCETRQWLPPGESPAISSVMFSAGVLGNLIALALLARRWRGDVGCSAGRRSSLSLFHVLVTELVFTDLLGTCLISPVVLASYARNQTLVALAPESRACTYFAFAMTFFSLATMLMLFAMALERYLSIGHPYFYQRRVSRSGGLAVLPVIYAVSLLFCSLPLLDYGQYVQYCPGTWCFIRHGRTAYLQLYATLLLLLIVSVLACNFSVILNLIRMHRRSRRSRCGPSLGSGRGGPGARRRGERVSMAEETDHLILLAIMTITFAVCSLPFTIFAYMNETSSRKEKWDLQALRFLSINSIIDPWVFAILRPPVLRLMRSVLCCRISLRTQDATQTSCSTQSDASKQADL
Method in brief: (§1)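 Peak Fluo-4 fluorescence (ex 470–495, em 515–575 nm) was read for 3.5 min on FLIPR after agonist injection and expressed relative to 10^−6 M standard agonist. Cells were HEK-293 EBNA transfectants. Test compound was added 4.5 min beforehand at 0.1–30 μM, or 0.067–1 μM for TP.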

[2] = biological target: T2, human prostanoid FP receptor (Homo sapiens, UniProt P43088); test: FLIPR Ca2+ signaling antagonist assay, FP receptor stable cell line; conditions: HEK-293 EBNA stable cell line; standard agonist 17-phenyl-PGF2α; NA = inactive (no antagonism or Kb 10,000 nM); PAg, Ag not defined
T2 construct: expressed in transfected cells
T2 sequence (P43088 whole entry): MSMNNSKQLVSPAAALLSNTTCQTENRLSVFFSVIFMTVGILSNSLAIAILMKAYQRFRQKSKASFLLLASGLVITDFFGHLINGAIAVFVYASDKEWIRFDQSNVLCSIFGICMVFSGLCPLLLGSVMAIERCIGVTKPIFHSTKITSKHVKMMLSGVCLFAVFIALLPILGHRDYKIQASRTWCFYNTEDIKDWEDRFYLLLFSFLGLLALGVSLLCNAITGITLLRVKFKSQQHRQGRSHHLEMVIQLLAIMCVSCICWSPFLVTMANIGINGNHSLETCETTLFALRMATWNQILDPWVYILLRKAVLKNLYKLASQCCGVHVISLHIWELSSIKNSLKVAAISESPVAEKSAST
Method in brief: as §1

[3] = biological target: T3, human prostanoid DP1 receptor (Homo sapiens, UniProt Q13258); test: FLIPR Ca2+ signaling antagonist assay, DP1 receptor stable cell line; conditions: HEK-293 EBNA stable cell line; standard agonist BW 245C; NA = inactive (no antagonism or Kb 10,000 nM); PAg, Ag not defined
T3 construct: expressed in transfected cells
T3 sequence (Q13258 1-359): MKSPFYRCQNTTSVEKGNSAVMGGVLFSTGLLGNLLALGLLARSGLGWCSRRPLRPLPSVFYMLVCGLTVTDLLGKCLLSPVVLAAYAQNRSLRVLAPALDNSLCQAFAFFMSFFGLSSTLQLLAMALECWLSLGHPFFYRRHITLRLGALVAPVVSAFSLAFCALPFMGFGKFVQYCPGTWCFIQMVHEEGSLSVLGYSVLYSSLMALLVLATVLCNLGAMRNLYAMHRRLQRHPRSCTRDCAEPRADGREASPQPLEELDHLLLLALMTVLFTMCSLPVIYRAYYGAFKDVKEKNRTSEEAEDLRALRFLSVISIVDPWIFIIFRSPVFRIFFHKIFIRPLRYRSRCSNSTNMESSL
Method in brief: as §1

[4] = biological target: T4, human prostanoid TP receptor (Homo sapiens, UniProt P21731); test: FLIPR Ca2+ signaling antagonist assay, TP receptor stable cell line; conditions: HEK-293 EBNA stable cell line; standard agonist U-46619; NA = inactive (no antagonism or Kb 10,000 nM); PAg, Ag not defined
T4 construct: expressed in transfected cells
T4 sequence (P21731 1-343): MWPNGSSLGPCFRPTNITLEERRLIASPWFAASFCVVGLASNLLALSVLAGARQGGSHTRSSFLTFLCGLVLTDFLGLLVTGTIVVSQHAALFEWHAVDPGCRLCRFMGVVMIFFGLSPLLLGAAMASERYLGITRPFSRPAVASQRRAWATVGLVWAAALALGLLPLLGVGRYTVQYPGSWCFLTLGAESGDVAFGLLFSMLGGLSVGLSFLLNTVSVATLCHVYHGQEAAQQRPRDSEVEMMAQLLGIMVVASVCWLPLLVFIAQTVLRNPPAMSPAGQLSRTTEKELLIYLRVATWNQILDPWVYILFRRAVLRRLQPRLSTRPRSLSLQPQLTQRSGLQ
Method in brief: as §1

Kb [1] [nM] | Kb [2] [nM] | Kb [3] [nM] | Kb [4] [nM] | DP1 (FLIPR) Kb [3] | EP2 (FLIPR) Kb [1] | TP (FLIPR) Kb [4] | SMILES
500 | 20 | 600 | – | – | – | Ag | Cc1cc(CCC(=O)O)nn1Cc1cc(OC(F)(F)F)ccc1OCc1ccc(Cl)cc1 [Example 51, 3-[1-[2-(4-Chloro-benzyloxy)-5-trifluoromethoxy-benzyl]-5-methyl-1H-pyrazol-3-yl]-propionic acid]
2200 | 30 | 100 | – | – | – | PAg | Cc1cc(CCC(=O)O)nn1Cc1cc(C(F)(F)F)ccc1OCc1ccc(Cl)cc1 [Example 52, 3-[1-[2-(4-Chloro-benzyloxy)-5-trifluoromethyl-benzyl]-5-methyl-1H-pyrazol-3-yl]-propionic acid]

Second part, the compound before the results:

SMILES | Kb [1] [nM] | Kb [2] [nM] | Kb [3] [nM] | Kb [4] [nM] | DP1 (FLIPR) Kb [3] | EP2 (FLIPR) Kb [1] | TP (FLIPR) Kb [4]
Cc1cc(CCC(=O)NS(=O)(=O)c2ccccc2)nn1Cc1cc(Cl)ccc1OCc1ccc(Cl)cc1 [Example 24, N-(3-[1-(5-Chloro-2-(4-chlorobenzyloxy)benzyl)-5-methyl-1H-pyrazol-3-yl]-propionyl)benzenesulfonamide] | 5500 | 800 | 800 | 30 | – | – | –
Cc1cc(CCC(=O)O)nn1Cc1cc(Cl)ccc1OCC(C)(C)C [Example 35, 3-[1-(5-Chloro-2-(2,2-dimethylropoxy)benzyl)-5-methyl-1H-pyrazol-3-yl]-propionic acid] | 3200 | 110 | – | 20 | PAg | – | –
Cc1cc(CCC(=O)O)nn1Cc1cc(Cl)ccc1OCCCC(C)C [Example 40, 3-[1-(5-Chloro-2-(4-methylpentyloxy)benzyl)-5-methyl-1H-pyrazol-3-yl]-propionic acid] | 1400 | 360 | – | 40 | PAg | – | –
Cc1cc(CCC(=O)NS(=O)(=O)C(F)(F)F)nn1Cc1cc(Cl)ccc1OCC1CCCC1 [Example 43, N-(3-[1-(5-Chloro-2-cyclopentylmethoxybenzyl)-5-methyl-1H-pyrazol-3-yl]-propionyl)C,C,C-trifluoromethanesulfon amide] | – | 400 | – | 2 | PAg | PAg | –
Cc1cc(CCC(=O)O)nn1Cc1cc(OC(F)(F)F)ccc1OCC1CCCC1 [Example 50, 3-[1-(2-Cyclopentylmethoxy-5-trifluoromethoxy-benzyl)-5-methyl-1H-pyrazol-3-yl]-propionic acid] | 4500 | 90 | – | 20 | Ag | – | –
